Measurements published in US8791132B2, “Compounds and methods for treatment of hypertension” (Medivation Technologies, Inc., priority 2011, dated 2014).

Experiments:
[1] = molecular target: T1, human recombinant adrenergic α2B receptor (Homo sapiens, UniProt P18089); assay: Radioligand binding, adrenergic α2B ([3H]Rauwolscine); conditions: 0.03 μM compound; for inhibition at 0.03 µM: read-out: Percentage inhibition of ligand binding, Adrenergic α2B
T1 construct: expressed in transfected cells; host or cells: CHO-K1
T1 sequence (P18089 1-450): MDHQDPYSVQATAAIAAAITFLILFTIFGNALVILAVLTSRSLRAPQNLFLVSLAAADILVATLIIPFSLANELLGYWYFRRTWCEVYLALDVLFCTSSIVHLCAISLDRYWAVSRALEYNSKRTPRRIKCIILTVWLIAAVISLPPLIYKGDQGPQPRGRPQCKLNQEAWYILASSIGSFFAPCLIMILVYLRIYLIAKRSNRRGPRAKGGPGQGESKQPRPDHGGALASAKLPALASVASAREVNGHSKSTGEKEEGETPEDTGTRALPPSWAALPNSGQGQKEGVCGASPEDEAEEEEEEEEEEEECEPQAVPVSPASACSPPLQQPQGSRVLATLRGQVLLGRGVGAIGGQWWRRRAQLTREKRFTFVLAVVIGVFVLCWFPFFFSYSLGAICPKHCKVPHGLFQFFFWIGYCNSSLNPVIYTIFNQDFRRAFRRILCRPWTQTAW
Procedure, shortened: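 Membranes from CHO-K1 cells expressing human recombinant α2B, in 50 mM Tris-HCl pH 7.4, 12.5 mM MgCl2, 1 mM EDTA, 0.2% BSA, incubated with compound and 2.5 nM [3H]Rauwolscine, 60 min, 25 °C.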

[2] = molecular target: T2, human recombinant adrenergic α2A receptor (Homo sapiens, UniProt P08913); assay: Radioligand binding, adrenergic α2A ([3H]MK-912); conditions: 0.1 μM compound; read-out: Percentage inhibition of ligand binding, Adrenergic α2A
T2 construct: expressed in transfected cells; host or cells: insect Sf9 cells
T2 sequence (P08913 1-465): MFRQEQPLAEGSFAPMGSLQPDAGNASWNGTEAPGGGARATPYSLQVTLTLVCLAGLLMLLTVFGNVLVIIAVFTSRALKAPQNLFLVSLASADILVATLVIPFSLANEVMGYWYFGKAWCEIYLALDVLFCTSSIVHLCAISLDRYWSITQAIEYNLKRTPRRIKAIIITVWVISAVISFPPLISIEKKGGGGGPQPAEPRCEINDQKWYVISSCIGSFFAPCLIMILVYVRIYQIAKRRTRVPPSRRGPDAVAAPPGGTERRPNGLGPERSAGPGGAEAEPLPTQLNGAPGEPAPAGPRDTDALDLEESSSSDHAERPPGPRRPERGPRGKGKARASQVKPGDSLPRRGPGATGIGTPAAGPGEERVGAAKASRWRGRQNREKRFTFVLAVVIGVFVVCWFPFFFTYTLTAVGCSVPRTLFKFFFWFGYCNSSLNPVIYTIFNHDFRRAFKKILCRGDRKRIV
Procedure, shortened: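 Sf9-expressed receptor was incubated with compound for 60 min at 25 °C in modified Tris-HCl buffer, pH 7.4. Nonspecific binding was taken as that remaining with 10 μM WB-4101.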

[3] = molecular target: T3, rat adrenergic α1B receptor (Rattus norvegicus, UniProt P15823); assay: Radioligand binding, adrenergic α1B ([3H]Prazosin); conditions: 0.1 μM compound; for inhibition at 0.1 µM: read-out: Percentage inhibition of ligand binding, Adrenergic α1B
T3 construct: rat adrenergic α1B receptor obtained from Wistar Rat liver; from tissue; host or cells: Wistar rat liver
T3 sequence (P15823 1-515): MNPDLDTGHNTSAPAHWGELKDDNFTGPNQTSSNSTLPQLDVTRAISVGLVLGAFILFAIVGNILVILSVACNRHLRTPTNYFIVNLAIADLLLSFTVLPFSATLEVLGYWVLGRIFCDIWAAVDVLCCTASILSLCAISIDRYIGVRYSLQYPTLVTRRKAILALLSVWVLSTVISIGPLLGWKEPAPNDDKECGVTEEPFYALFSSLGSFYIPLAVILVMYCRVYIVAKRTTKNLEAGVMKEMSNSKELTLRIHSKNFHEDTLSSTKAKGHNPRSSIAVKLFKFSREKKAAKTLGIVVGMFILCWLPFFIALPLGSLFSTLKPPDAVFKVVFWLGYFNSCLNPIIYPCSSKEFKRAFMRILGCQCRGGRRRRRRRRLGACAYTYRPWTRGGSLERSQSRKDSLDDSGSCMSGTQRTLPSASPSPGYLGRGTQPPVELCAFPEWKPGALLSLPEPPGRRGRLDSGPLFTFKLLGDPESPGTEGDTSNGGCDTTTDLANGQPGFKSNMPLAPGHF
Procedure, shortened: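 Incubation ran 60 min at 25 °C in Tris-HCl buffer (50 mM, pH 7.4, 0.5 mM EDTA) with Wistar rat liver α1B receptor. 10 μM phentolamine set non-specific binding.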

| Compound | inhibition at 0.03 µM [1] | inhibition at 0.1 µM [2] | inhibition at 0.1 µM [3] | Percentage inhibition of ligand binding, Adrenergic α2B [1] | Percentage inhibition of ligand binding, Adrenergic α1B [3] |
| --- | --- | --- | --- | --- | --- |
| OC(Cn1c2c(c3cccnc31)C1CCCN1CC2)c1ccncc1 (stereo not drawn) [II-79] | 59% | 0% | 7% | – | – |
| Cc1ccc2c(c1)c1c(n2CC(C)(O)c2ccc(O)nc2)CCN(C)C1 (stereo not drawn) [II-80, 5-[2-(2,8-dimethyl-1,2,3,4-tetrahydro-pyrido[4,3-b]indol-5-yl)-1-hydroxy-1-methyl-ethyl]-pyridin-2-ol] | 9% | 3% | 4% | – | – |
| OCc1ccc2c(c1)c1c(n2CC(O)c2ccncc2)CCNC1 (stereo not drawn) [II-81, 2-(8-hydroxymethyl-1,2,3,4-tetrahydro-pyrido[4,3-b]indol-5-yl)-1-pyridin-4-yl-ethanol] | -9% | 15% | -1% | – | – |
| OC(Cn1c2c(c3ccccc31)C1CCC(C2)N1)c1ccncc1 (stereo not drawn) [II-85] | -2% | 15% | -7% | – | – |
| OC(Cn1c2c(c3cc(Cl)cnc31)CN1CCCC1C2)c1ccncc1 (stereo not drawn) [II-86] | 35% | 27% | 44% | – | – |
| CN1CCc2c(n(CC(O)c3cccnc3)c3ccc(Cl)cc23)C1 (stereo not drawn) [II-87] | 24% | 1% | 11% | – | – |
| Cc1ccc2c(c1)c1c(n2CC(O)c2ccc(O)c(O)c2)CCN(C)C1 (stereo not drawn) [II-88, 4-[2-(2,8-dimethyl-1,2,3,4-tetrahydro-pyrido[4,3-b]indol-5-yl)-1-hydroxy-ethyl]-benzene-1,2-diol] | 48% | -2% | 68% | – | – |
| OC(Cn1c2c(c3cc(Cl)ccc31)CNCC2)c1cccnc1 (stereo not drawn) [II-89, 2-(8-chloro-1,2,3,4-tetrahydro-pyrido[4,3-b]indol-5-yl)-1-pyridin-3-yl-ethanol] | 35% | -5% | 13% | – | – |
| Cc1ccc2c(c1)c1c(n2CC(O)c2ccnc3ccccc23)CCN(C)C1 (stereo not drawn) [II-90, 2-(2,8-dimethyl-3,4-dihydro-1H-pyrido[4,3-b]indol-5(2H)-yl)-1-(quinolin-4-yl)ethanol] | 55% | 19% | 62% | – | – |
| Cc1ccc2c(c1)c1c(n2CC(O)C2CCCCC2)CCN(C)C1 (stereo not drawn) [II-91] | 25% | -2% | 16% | – | – |

Next, values leading:

| inhibition at 0.03 µM [1] | inhibition at 0.1 µM [2] | inhibition at 0.1 µM [3] | Percentage inhibition of ligand binding, Adrenergic α2B [1] | Percentage inhibition of ligand binding, Adrenergic α1B [3] | Compound |
| --- | --- | --- | --- | --- | --- |
| 25% | 0% | 13% | – | – | Cc1ccc2c(c1)c1c(n2CC(O)c2ccc(O)nc2)CCN(C)C1 (stereo not drawn) [II-92, 5-(2-(1,2,3,4-tetrahydro-2,8-dimethylpyrido[4,3-b]indol-5-yl)-1-hydroxyethyl)pyridin-2(1H)-one] |
| – | 7% | – | 24% | 6% | OCCN1CCc2c(c3cc(Cl)ccc3n2CC(O)c2ccncc2)C1 (stereo not drawn) [II-93a] |
| 24% | 4% | -4% | – | – | Cc1ccc2c(c1)c1c(n2CC(O)c2ccncc2)CCN(CCS(=O)(=O)O)C1 (stereo not drawn) [II-97, 2-(3,4-dihydro-5-(2-hydroxy-2-(pyridin-4-yl)ethyl)-8-methyl-1H-pyrido[4,3-b]indol-2(5H)-yl)ethanesulfonic acid] |
| 49% | 10% | 2% | – | – | CN1CCc2c(c3cc(CO)ccc3n2CC(C)(O)c2cccnc2)C1 (stereo not drawn) [II-102] |
| 21% | 10% | 3% | – | – | CC(O)(Cn1c2c(c3cc(CO)ccc31)CNCC2)c1cccnc1 (stereo not drawn) [II-104] |
